Test results published in US10059694B2, “2-aminopyrimidine compound and pharmaceutical composition and use thereof” (Shanghai Institute of Materia Medica, Chinese Academy of …, priority 2014, dated 2018).

Experiments:
EGFR^T790M/L858R = target: T1, EGFR^T790M/L858R (Homo sapiens, UniProt P00533, L858R/T790M); experiment: kinase inhibitory activity test (ELISA), EGFR^T790M/L858R; format: biochemical; conditions: ELISA, ATP 5 μM, 1 hour at 37° C.
T1 construct: purchased Millipore
In short: (§1)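 ELISA on poly(Glu,Tyr)4:1-coated plates; kinase reaction with 5 μM ATP (final) in 50 mM HEPES pH 7.4, 50 mM MgCl2, 5 mM MnCl2, 0.2 mM Na3VO4, 1 mM DTT, 1 h at 37° C. Phosphotyrosine detected via PY99/HRP and OPD at 490 nm; IC50 by four-parameter fit.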

[1] = system: human non-small cell lung cancer NCI-H1975 cell line; experiment: SRB proliferation assay, NCI-H1975 cells; format: cell-based; conditions: NCI-H1975, SRB, 72 h, read-out: IC50 NCI-H1975
In short: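 NCI-H1975 cells in log phase were allowed to adhere for 24 h, then treated with compound in triplicate for 72 h. Cells were TCA-fixed and SRB-stained, with OD read at 515 nm; IC50 derived from growth inhibition versus DMSO control.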

[2] = system: human epidermal carcinoma A431 cell line; experiment: SRB proliferation assay, A431 cells; format: cell-based; conditions: A-431, SRB, 72 h, read-out: IC50 A431
In short: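 A431 cells in log phase are allowed to adhere for 24 h, then exposed to compound for 72 h in triplicate alongside DMSO controls. Cells are fixed with cold 10% TCA, stained with SRB, dye is solubilised in 10 mM Tris pH 10.5, and OD is read at 515 nm.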

EGFR^wt = target: T2, EGFR^wt (Homo sapiens, UniProt P00533); experiment: kinase inhibitory activity test (ELISA), EGFR^WT; format: biochemical; conditions: ATP 5 μM, 1 hour at 37° C.
T2 construct: purchased Millipore
T2 sequence (P00533 25-1210): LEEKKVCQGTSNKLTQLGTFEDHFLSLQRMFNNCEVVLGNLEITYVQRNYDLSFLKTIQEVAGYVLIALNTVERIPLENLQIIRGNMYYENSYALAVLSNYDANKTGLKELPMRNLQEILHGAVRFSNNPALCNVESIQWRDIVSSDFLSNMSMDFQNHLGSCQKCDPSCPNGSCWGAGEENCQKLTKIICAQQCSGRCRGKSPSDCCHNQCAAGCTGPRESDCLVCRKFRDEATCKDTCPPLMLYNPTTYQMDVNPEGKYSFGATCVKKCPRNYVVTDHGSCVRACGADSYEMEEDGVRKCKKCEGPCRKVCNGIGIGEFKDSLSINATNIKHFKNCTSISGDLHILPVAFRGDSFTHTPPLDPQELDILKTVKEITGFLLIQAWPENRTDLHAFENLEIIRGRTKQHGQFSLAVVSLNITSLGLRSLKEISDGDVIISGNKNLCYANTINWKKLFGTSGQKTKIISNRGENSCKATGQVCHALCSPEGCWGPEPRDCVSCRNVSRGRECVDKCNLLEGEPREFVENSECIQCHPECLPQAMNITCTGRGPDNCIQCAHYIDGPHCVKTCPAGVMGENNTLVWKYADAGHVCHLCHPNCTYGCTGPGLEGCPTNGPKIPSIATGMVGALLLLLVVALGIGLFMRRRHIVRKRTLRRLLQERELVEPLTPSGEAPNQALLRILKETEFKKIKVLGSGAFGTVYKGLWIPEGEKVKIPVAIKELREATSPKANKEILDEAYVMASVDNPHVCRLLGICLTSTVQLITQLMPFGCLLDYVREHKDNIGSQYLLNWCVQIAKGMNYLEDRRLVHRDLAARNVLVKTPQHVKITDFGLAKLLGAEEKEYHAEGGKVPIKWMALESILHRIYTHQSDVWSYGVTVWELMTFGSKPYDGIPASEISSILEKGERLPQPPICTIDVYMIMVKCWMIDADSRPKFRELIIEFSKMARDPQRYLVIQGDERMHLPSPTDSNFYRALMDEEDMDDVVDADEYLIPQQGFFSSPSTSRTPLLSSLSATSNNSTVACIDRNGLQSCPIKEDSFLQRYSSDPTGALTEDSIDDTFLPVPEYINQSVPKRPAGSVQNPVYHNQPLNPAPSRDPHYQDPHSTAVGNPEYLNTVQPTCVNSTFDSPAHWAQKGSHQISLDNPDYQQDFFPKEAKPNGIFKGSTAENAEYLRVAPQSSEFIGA
In short: as §1

IGF-1R = target: T3, IGF-1R (Homo sapiens, UniProt P08069); experiment: kinase inhibitory activity test (ELISA), IGF-1R; format: biochemical; conditions: ATP 5 μM, 1 hour at 37° C.
T3 construct: purchased Millipore
T3 sequence (P08069 31-1367): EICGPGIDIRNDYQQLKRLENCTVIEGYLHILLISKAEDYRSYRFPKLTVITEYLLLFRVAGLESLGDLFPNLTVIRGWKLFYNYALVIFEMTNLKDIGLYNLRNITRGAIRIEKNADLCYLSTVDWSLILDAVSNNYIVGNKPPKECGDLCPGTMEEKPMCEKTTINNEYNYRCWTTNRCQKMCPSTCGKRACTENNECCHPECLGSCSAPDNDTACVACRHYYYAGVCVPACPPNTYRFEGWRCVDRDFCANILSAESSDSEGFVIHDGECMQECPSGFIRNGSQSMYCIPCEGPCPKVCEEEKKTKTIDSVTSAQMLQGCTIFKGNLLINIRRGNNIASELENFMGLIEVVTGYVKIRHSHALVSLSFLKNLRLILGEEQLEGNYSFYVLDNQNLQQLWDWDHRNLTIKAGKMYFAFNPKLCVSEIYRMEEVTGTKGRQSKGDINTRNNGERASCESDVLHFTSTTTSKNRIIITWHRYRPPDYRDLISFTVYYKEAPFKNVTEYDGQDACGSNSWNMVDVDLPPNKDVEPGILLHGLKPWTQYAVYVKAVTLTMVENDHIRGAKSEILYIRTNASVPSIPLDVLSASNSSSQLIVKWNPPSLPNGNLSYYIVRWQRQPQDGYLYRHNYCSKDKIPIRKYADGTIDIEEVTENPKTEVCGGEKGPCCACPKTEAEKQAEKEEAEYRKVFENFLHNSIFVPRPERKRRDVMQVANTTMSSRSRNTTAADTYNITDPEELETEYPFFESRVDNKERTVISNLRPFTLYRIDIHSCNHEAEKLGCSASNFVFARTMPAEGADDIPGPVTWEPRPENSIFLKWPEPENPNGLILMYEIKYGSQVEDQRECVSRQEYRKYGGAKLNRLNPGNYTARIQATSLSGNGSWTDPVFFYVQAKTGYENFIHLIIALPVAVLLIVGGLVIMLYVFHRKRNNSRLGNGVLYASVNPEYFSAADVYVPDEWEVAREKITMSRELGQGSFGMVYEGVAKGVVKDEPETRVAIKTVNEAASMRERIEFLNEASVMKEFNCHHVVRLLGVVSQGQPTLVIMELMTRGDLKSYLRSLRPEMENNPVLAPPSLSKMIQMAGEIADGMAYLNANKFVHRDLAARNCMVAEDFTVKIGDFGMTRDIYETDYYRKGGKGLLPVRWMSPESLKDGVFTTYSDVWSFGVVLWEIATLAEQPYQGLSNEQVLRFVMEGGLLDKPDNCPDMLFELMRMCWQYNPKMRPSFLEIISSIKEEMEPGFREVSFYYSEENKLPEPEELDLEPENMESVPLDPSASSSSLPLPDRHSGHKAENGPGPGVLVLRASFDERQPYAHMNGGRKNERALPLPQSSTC
In short: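 Poly(Glu,Tyr)4:1-coated plates; kinase reacted 1 h at 37 °C with 5 μM ATP (final) in HEPES pH 7.4 buffer with Mg2+/Mn2+. Phosphotyrosine detected by PY99 and HRP anti-mouse IgG with OPD at 490 nm; IC50 from four-parameter fit.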

T1 sequence (P00533 25-1210 T790M/L858R): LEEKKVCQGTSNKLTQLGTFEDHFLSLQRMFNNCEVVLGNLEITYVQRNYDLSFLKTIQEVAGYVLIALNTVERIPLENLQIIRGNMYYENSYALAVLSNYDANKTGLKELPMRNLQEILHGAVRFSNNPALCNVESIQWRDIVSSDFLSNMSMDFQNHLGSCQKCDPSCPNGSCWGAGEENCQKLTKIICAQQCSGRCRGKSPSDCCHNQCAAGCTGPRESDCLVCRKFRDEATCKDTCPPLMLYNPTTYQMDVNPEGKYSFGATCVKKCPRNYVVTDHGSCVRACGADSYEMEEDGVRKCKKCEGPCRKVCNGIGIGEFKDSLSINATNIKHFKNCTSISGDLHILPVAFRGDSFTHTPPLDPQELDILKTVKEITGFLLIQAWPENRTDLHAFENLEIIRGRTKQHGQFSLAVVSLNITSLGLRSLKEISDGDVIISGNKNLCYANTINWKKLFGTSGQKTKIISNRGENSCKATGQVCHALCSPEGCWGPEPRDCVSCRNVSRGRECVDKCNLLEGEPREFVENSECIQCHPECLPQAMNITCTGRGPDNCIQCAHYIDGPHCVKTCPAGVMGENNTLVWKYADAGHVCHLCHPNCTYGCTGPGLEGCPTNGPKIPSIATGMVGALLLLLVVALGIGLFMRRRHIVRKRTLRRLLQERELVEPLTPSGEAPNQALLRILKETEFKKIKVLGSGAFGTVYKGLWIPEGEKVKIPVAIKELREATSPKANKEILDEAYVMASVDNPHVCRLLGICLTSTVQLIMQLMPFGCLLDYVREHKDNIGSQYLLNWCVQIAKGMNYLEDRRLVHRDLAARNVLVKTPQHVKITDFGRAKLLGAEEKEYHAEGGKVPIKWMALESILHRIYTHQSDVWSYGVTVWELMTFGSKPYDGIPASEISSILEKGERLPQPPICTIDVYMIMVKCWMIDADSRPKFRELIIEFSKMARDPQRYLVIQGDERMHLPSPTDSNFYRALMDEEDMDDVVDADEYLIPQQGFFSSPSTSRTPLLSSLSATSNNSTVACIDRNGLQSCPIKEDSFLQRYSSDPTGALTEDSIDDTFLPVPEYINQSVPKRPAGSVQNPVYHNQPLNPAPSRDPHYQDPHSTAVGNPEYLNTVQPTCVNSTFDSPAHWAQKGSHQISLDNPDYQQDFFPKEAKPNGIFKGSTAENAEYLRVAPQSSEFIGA

| IC50 (EGFR^T790M/L858R) | IC50 [1] | IC50 [2] | IC50 (EGFR^wt) | IC50 (IGF-1R) | Compound |
| --- | --- | --- | --- | --- | --- |
| 32.4 nM | 948 nM | 12800 nM | 4150 nM | 146 nM | CN(C)C/C=C/C(=O)Nc1ccc(F)c(Nc2ncc(Br)c(Nc3ccc4ccccc4c3)n2)c1 [CCB145330, (E)-N-((3-((5-bromo-4-((naphthalen-2-yl)amino))pyrimidin-2-yl)amino)-4-fluorophenyl)-4-(dimethylamino)-2-butenamide] |
| 24.2 nM | 632 nM | 6220 nM | 4750 nM | 170 nM | CN(C)C/C=C/C(=O)Nc1cccc(Nc2ncc(Cl)c(Nc3ccc4ccccc4c3)n2)c1 [CCB145333, (E)-N-((3-((5-chloro-4-((naphthalen-2-yl)amino))pyrimidin-2-yl)amino)phenyl)-4-(dimethylamino)-2-butenamide] |
| 35.7 nM | 2480 nM | 2590 nM | 3890 nM | 90.6 nM | CN(C)C/C=C/C(=O)Nc1cccc(Nc2ncc(Br)c(Nc3ccc4ccccc4c3)n2)c1 [CCB145335, (E)-N-((3-((5-bromo-4-((naphthalen-2-yl)amino))pyrimidin-2-yl)amino)phenyl)-4-(dimethylamino)-2-butenamide] |
| 73.2 nM | 959 nM | 2190 nM | 4480 nM | 48.3 nM | Cc1ccc(NC(=O)/C=C/CN(C)C)cc1Nc1ncc(Br)c(Nc2ccc3ccccc3c2)n1 [CCB145339, (E)-N-((3-((5-bromo-4-((naphthalen-2-yl)amino))pyrimidin-2-yl)amino)-4-methylphenyl)-4-(dimethylamino)-2-butenamide] |
| 28.7 nM | 864 nM | 1610 nM | 2220 nM | 117 nM | Cc1ccc(NC(=O)/C=C/CN(C)C)cc1Nc1ncc(Cl)c(Nc2ccc3ccccc3c2)n1 [CCB145340] |
| 44.2 nM | 1260 nM | 942 nM | 1880 nM | 127 nM | Cc1cc(NC(=O)/C=C/CN(C)C)cc(Nc2ncc(Br)c(Nc3ccc4ccccc4c3)n2)c1 [CCB145342, (E)-N-((3-((5-bromo-4-((naphthalen-2-yl)amino))pyrimidin-2-yl)amino)-5-methylphenyl)-4-(dimethylamino)-2-butenamide] |
| 46.3 nM | 925 nM | 775 nM | 613 nM | 36 nM | Cc1cc(NC(=O)/C=C/CN(C)C)cc(Nc2ncc(Cl)c(Nc3ccc4ccccc4c3)n2)c1 [CCB145344, (E)-N-((3-((5-chloro-4-((naphthalen-2-yl)amino))pyrimidin-2-yl)amino)-5-methylphenyl)-4-(dimethylamino)-2-butenamide] |
| 56.2 nM | 598 nM | 1040 nM | 1150 nM | 200 nM | Cc1ccc(Nc2ncc(Cl)c(Nc3ccc4ccccc4c3)n2)cc1NC(=O)/C=C/CN(C)C [CCB145346, (E)-N-((5-((5-chloro-4-((naphthalen-2-yl)amino))pyrimidin-2-yl)amino)-2-methylphenyl)-4-(dimethylamino)-2-butenamide] |
| 42.5 nM | 1100 nM | 4660 nM | 470 nM | 157 nM | Cc1ccc(Nc2ncc(Br)c(Nc3ccc4ccccc4c3)n2)cc1NC(=O)/C=C/CN(C)C [CCB145348, (E)-N-((5-((5-bromo-4-((naphthalen-2-yl)amino))pyrimidin-2-yl)amino)-2-methylphenyl)-4-(dimethylamino)-2-butenamide] |
| 25.6 nM | 1180 nM | 6260 nM | 1460 nM | 163 nM | CCOc1ccc(NC(=O)/C=C/CN(C)C)cc1Nc1ncc(Cl)c(Nc2ccc3ccccc3c2)n1 [CCB145373, (E)-N-((3-((5-chloro-4-((naphthalen-2-yl)amino))pyrimidin-2-yl)amino)-4-ethoxyphenyl)-4-(dimethylamino)-2-butenamide] |
| 11.3 nM | 2820 nM | 4470 nM | 2830 nM | 86.4 nM | CCOc1ccc(NC(=O)/C=C/CN(C)C)cc1Nc1ncc(Br)c(Nc2ccc3ccccc3c2)n1 [CCB145374, (E)-N-((3-((5-bromo-4-((naphthalen-2-yl)amino))pyrimidin-2-yl)amino)-4-ethoxyphenyl)-4-(dimethylamino)-2-butenamide] |
| 6.7 nM | 429 nM | 1670 nM | 1060 nM | 195 nM | COc1cc(F)c(NC(=O)/C=C/CN(C)C)cc1Nc1ncc(Cl)c(Nc2ccc3ccccc3c2)n1 [CCB145380, (E)-N-((5-((5-chloro-4-((naphthalen-2-yl)amino))pyrimidin-2-yl)amino)-2-fluoro-4-methoxyphenyl)-4-(dimethylamino)-2-butenamide] |
| 7.5 nM | 508 nM | 1790 nM | 3540 nM | 102 nM | COc1cc(F)c(NC(=O)/C=C/CN(C)C)cc1Nc1ncc(Br)c(Nc2ccc3ccccc3c2)n1 [CCB145381, (E)-N-((5-((5-bromo-4-((naphthalen-2-yl)amino))pyrimidin-2-yl)amino)-2-fluoro-4-methoxyphenyl)-4-(dimethylamino)-2-butenamide] |
| 266 nM | 1970 nM | 671 nM | 2680 nM | 272 nM | CC(C)Oc1ccc(NC(=O)/C=C/CN(C)C)cc1Nc1ncc(Cl)c(Nc2ccc3ccccc3c2)n1 [CCB145384, (E)-N-((3-((5-chloro-4-((naphthalen-2-yl)amino))pyrimidin-2-yl)amino)-4-isopropoxyphenyl)-4-(dimethylamino)-2-butenamide] |
| 177 nM | 5740 nM | 7580 nM | 3620 nM | 316 nM | CC(C)Oc1ccc(NC(=O)/C=C/CN(C)C)cc1Nc1ncc(Br)c(Nc2ccc3ccccc3c2)n1 [CCB145385, (E)-N-((3-((5-bromo-4-((naphthalen-2-yl)amino))pyrimidin-2-yl)amino)-4-isopropoxyphenyl)-4-(dimethylamino)-2-butenamide] |
